4 compounds from patent US20140377340A1, “HLA-DR BINDING PEPTIDES AND THEIR USES” (priority 2007, published 2014) can be followed below.

For test [1], the target named is T1, purified HLA DRB1*0101 (Homo sapiens, UniProt P01903+P01911, A100R/D57E/F55L/F60I/F76Y/I96L/L162R/M171V/P40L/Q125E/R42F/V115G/Y59C).
T1 construct: purified from EBV transformed homozygous cell lines or single MHC allele transfected 721.221, C1R, or fibroblast lines; made in house
Put plainly: HLA-DR radioligand binding inhibition assay, DRB1*0101. The following applies: read-out: IC50 nM purified HLA DRB1 *0101; purified HLA DRB1*0101. Put shortly:
(§1)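 Competition binding: 1-10 nM radiolabeled peptide + 1 μM–1 nM HLA-DR, protease inhibitor cocktail, 2 d, RT or 37° C., pH 4–7. LB3.1 capture 3 h in 0.05% NP40/PBS; scintillation counting.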

In test [2] the target is T2, purified HLA DRB1*1302 (Homo sapiens, UniProt P01903+P01911, A100E/A169T/K41T/L162R/M171V/P40S/Q125H/Q178H/Q39Y/Q99D/R42S/S66N/T262R/V115G/W38E/Y61H).
T2 construct: purified from EBV transformed homozygous cell lines or single MHC allele transfected 721.221, C1R, or fibroblast lines; made in house
In words: HLA-DR radioligand binding inhibition assay, DRB1*1302. A digest of the protocol:
as §1

Test [3] has as its target T3, purified HLA DRB1*0901 (Homo sapiens, UniProt P01903+P01911, A100R/A103E/D57H/D86V/F55Y/F60I/F76Y/I96F/K127E/L162R/M171V/P40D/Q125H/Q99R/R33Q/R42F/S133A/S66N/T210M/V115G/W38K/Y107V/Y59G/Y89S).
T3 construct: purified from EBV transformed homozygous cell lines or single MHC allele transfected 721.221, C1R, or fibroblast lines; made in house
In words: HLA-DR radioligand binding inhibition assay, DRB1*0901. The conditions noted are these: read-out: IC50 nM purified HLA DRB1 *0901; purified HLA DRB1*0901. Here is the method: Instead, wells of an opaque white 96-well Optiplate (Packard) are coated with 3 μg (100 μl@ 30 μg/ml) of HLA-specific antibody (Ab) that “capture” complexes of radiolabeled MHC and unlabeled peptide transferred from the molecular binding assay plate in 100 μl of 0.05% NP40/PBS. After a 3-hour incubation period, the supernatant is decanted and scintillation fluid (Microscint 20) added. Captured complexes are then measured on a microplate scintillation and luminescence counter (TopCount NXTTM; Packard).
HLA-DR purification. Fifteen distinct HLA-DR molecules were used in quantitative assays to measure the binding of peptides to solubilized HLA-DR molecules. […] Briefly, columns of inactivated Sepharose CL4B and Protein A Sepharose were used as pre-columns. HLA-DR molecules were captured by passage of lysates over LB3.1 monoclonal antibody (anti-HLA-DRA) columns. Antibody columns were washed with 10 mM Tris-HCL, pH8.0 with 1% (v/v) NP-40, followed by PBS containing 0.4% (w/v) n-octylglucoside.
Briefly, 1-10 nM of radiolabeled peptide was co-incubated for 2 days at either room temperature or 37° C. with 1 μM to 1 nM purified HLA-DR molecules in the presence of a cocktail of protease inhibitors. Assays were performed at various pH conditions, ranging from pH 4 to pH 7. […] After incubation, the percentage of HLA-DR-bound radioactivity is determined by capturing HLA-DR/peptide complexes on Optiplates (Packard Instruments, Meriden, Conn.) coated with the LB3.1 antibody and determining bound counts per minute using the TopCount microscintillation counter (Packard Instruments).

Test [4] concerns the target T4, purified HLA DRB1*0405 (Homo sapiens, UniProt P01903+P01911, A100R/A169T/D86S/F76Y/I96L/K127E/L162R/M171V/N62H/P40V/Q125Y/R42H/S133A/S149N/S66Y/V115G/V209L/W38E).
T4 construct: purified from EBV transformed homozygous cell lines or single MHC allele transfected 721.221, C1R, or fibroblast lines; made in house
In words: HLA-DR radioligand binding inhibition assay, DRB1*0405. The conditions noted are these: read-out: IC50 nM purified HLA DRB1 *0405; purified HLA DRB1*0405. Put shortly:
as §1

In test [5] the test system is peptide-specific T cells in PBMC. Put plainly: 10-day interferon-gamma ELIspot with PBMC of breast or ovarian cancer patients and healthy controls. The conditions noted are these: fraction of breast or ovarian cancer patients with mean T cell values above cutoff (mean + 2 SD of healthy donors). It counts as cell-based, human. The source says:
Each panel represents a unique peptide and each data point is derived from one individual. The grey box (i.e. cutoff) delineates the region that constitutes the mean and two standard deviations calculated from the normal healthy individuals. The percentages represent the fraction of patients that had mean T cell values above the cutoff. The peptides that are circled are those in which a higher fraction of the patients responded compared to the normal healthy controls. These peptides are considered to be the best vaccine candidates. However, it is clear that the rigidness of this approach could potentially result in many false negatives. […] Despite this, we identified 5 candidates to move forward. The fidelity of this approach is evident from a prior study which has already shown that a HER-2/neu peptide, p884-899, which encompasses the binding motif of p885, is an HLA-DR4 epitope.
Enzyme-linked immunosorbent spot assay. A 10-day ELlspot for detecting low-frequency T cells was used to determine reactivity to the tumor antigen peptides (Table 1) as described (Knutson K L et al. J Clin Onc 2006;24: 4254-61). […] PMA/Ionomycin and the CEF pool were used as positive non-tumor related controls as previously described (Knutson, 2006).
Using predictive algorithms discussed above, candidate HLA-DR1-binding epitopes were identified. […] An interferon-gamma ELIspot assay was used to assess immunity to the indiscriminate binding peptides in 48 patients with either breast or ovarian cancer and 18 healthy controls.
Using an ELlspot assay with a limit of detection of approximately […], patient-derived PBMC were screened for reactivity against all of the HLA-DR binding peptides.

Test [6] concerns short term T cell lines from breast or ovarian cancer patients. Put plainly: IFN-γ ELISpot analysis of short term T cell lines (peptide versus protein fragment; natural processing). It counts as cell-based, human. The conditions noted are these: T cell lines respond to culture peptide and to protein fragment; FIGS. 5 and 6. The source says:
IFN-γ ELISpot analysis of short term T cell lines generated against HER-2/neu peptides, p53 (Panel A), p83 (Panel B), p88 (Panel C) and p885 (Panel D). […] Each bar is the mean (s.e.m.) of three replicates.
FIG. 6 is identical to FIG. 5 except that the results were obtained using IGFBP-2 derived helper epitopes.

Test [7] deals with 15 different HLA-DR molecules. Put plainly: HLA-DR binding assays, panel of 15 different HLA-DR molecules (breadth of binding). The following applies: number of the 15 HLA-DR molecules bound (binders: 1000 nM or better).

For `CC[C@H](C)[C@H](NC(=O)[C@H](CCCCN)NC(=O)[C@@H](NC(=O)[C@H](Cc1c[nH]cn1)NC(=O)[C@H](CC(N)=O)NC(=O)[C@@H]1CCCN1C(=O)[C@H](CO)NC(=O)[C@H](CCCCN)NC(=O)[C@@H](NC(=O)[C@H](CC(C)C)NC(=O)[C@@H](NC(=O)[C@H](CC(N)=O)NC(=O)[C@H](CCCNC(=N)N)NC(=O)[C@H](C)N)C(C)C)C(C)C)C(C)C)C(=O)N[C@H](C(=O)O)[C@@H](C)O`, the IC50 stood at 65 nM in test [1], 15 nM in test [2], 5780 nM in test [3] and 10500 nM in test [4].

With `CC(C)C[C@H](NC(=O)[C@H](CO)NC(=O)[C@H](C)NC(=O)[C@H](CC(N)=O)NC(=O)[C@@H](NC(=O)[C@@H]1CCCN1C(=O)[C@H](CC(C)C)NC(=O)[C@H](Cc1ccc(O)cc1)NC(=O)[C@@H](NC(=O)[C@H](CC(C)C)NC(=O)[C@H](CCC(=O)O)NC(=O)[C@H](CC(C)C)NC(=O)[C@@H](N)CC(N)=O)[C@@H](C)O)[C@@H](C)O)C(=O)N[C@@H](CO)C(=O)N[C@@H](Cc1ccccc1)C(=O)O` [Peptide 9019.0030], the “Percent of patients with responses” value in test [5] was determined as 15%. In addition, the “naturally processed and presented antigen” value in test [6] was “naturally processed and presented antigens”. Also, the “Total XRN” value in test [7] is listed as 12.

In the case of `CC[C@H](C)[C@H](NC(=O)[C@@H]1CCCN1)C(=O)N[C@@H](CCCCN)C(=O)N[C@@H](Cc1c[nH]c2ccccc12)C(=O)N[C@@H](CCSC)C(=O)N[C@@H](C)C(=O)N[C@@H](CC(C)C)C(=O)N[C@@H](CCC(=O)O)C(=O)N[C@@H](CO)C(=O)N[C@H](C(=O)N[C@@H](CC(C)C)C(=O)N[C@@H](CCCNC(=N)N)C(=O)N[C@@H](CCCNC(=N)N)C(=O)N[C@@H](CCCNC(=N)N)C(=O)N[C@@H](Cc1ccccc1)C(=O)O)[C@@H](C)CC` [Peptide 9019.0087], the “Percent of patients with responses” value in test [5] worked out at 25%. Besides, the “naturally processed and presented antigen” value in test [6] was “naturally processed and presented antigens”. Further, the “Total XRN” value in test [7] stood at 13.

In the case of `CC[C@H](C)[C@H](NC(=O)[C@H](Cc1c[nH]cn1)NC(=O)[C@H](CC(C)C)NC(=O)[C@H](CO)NC(=O)[C@H](Cc1ccc(O)cc1)NC(=O)[C@H](CC(C)C)NC(=O)[C@H](Cc1c[nH]cn1)NC(=O)[C@H](CCC(=O)O)NC(=O)[C@H](CC(C)C)NC(=O)[C@@H]1CCCN1C(=O)CNC(=O)[C@H](CCCNC(=N)N)NC(=O)[C@@H](N)CCC(=O)O)C(=O)N1CCC[C@H]1C(=O)N[C@@H](CC(N)=O)C(=O)O` [Peptide 9019.0190, EROPLEHLYSLHIPN], the “Percent of patients with responses” value in test [5] is 23%. Moreover, in test [6], the “naturally processed and presented antigen” value was “naturally processed peptides”. Also, in test [7], the “Total XRN” value was found to be 8.
